Results on twelve molecules are retold here after article PMC6727465, “Discovery of 2-phenoxyacetamides as inhibitors of the Wnt-depalmitoleating enzyme NOTUM from an X-ray fragment screen” (MedChemComm, 2019).

Series [1] can be described thus: Metabolic stability in mouse liver microsomes. Format: in vitro ADME. To be noted: NADPH independent metabolism; for half-life: mouse. The source says:
(§1) Selected compounds were screened for aqueous solubility, transit performance in MDCK-mdr1 cell
(§2) lines for permeability, and metabolic stability in human and mouse liver microsomes as a measure of
(§3) ADME studies reported in this work were independently performed by GVK Biosciences (Hyderabad,
(§4) India) and/or Cyprotex (Macclesfield, UK).
(§5) Cyptotex, UK. See: https://www.cyprotex.com/admepk
(§6) GVK Biosciences, India. See: https://www.gvkbio.com/discovery-services/biology-services/dmpk-
(§7) The MDCK-mdr1 cell line used in these experiments was supplied to GVK Biosciences from SOLVO
Background: Microsomes from liver hold many membrane-bound enzymes, among them those of drug oxidation.

For series [2], the system named is Wnt/β-catenin signaling pathway TCF/LEF reporter (luciferase) HEK293 cell line with exogenous Wnt3a and NOTUM. The series is described as follows: cells. Format: cell-based. To be noted: for EC50: Wnt3a 100 ng mL^–1, NOTUM 500 ng mL^–1, n = 4, read-out: TCF/LEF reporter EC50, activation of Wnt signaling via inhibition of NOTUM.
Series [3] in a line: Metabolic stability in human liver microsomes. Format: in vitro ADME. To be noted: NADPH independent metabolism.
Description: as §1, §2, §3, §4, §5, §6, §7

Series [4] is described as follows: Aqueous thermodynamic solubility. To be noted: aqueous medium (not further specified), thermodynamic from solid. Format: physicochemical.
Description: as §1, §2, §3, §4, §5, §6, §7

Series [5] in a line: Hydrolytic stability in buffer systems. Format: physicochemical. The conditions noted are these: three buffer systems (pH 4, 7.4, 10), time points up to 18 h, UPLC-MS.
The test system of the next series is MDCK-mdr1 cell line. The series is described as follows: MDCK-mdr1 cell permeability. To be noted: MDCK-mdr1. Format: in vitro ADME.
Description: as §1, §2, §3, §4, §5, §6, §7

The nature of series [6]: MDCK-mdr1 cell permeability. Format: in vitro ADME. To be noted: dog.
Description: as §1, §2, §3, §4, §5, §6, §7

Structures are written as SMILES. Values after ≈ are worked out from the molar mass of the structure shown. Read-outs that look alike come from different tables or passages of the source.

Turning to `O=C(COc1ccccc1Cl)Nc1ccc2cnccc2c1` [Compound 50], the half-life in series [1] (liver microsomes) was 3.3 min.
Take `Cc1ccccc1N(C)CC(=O)Nc1ccc2cnn(C)c2c1` [Compound 53]: the half-life in series [1] (mouse liver microsomes) turned out to be 5.2 min.
On to `Cc1ccccc1OCC(=O)Nc1cnccn1` [Compound 22], for which the “MLM (t1/2 min)” value in series [1] was “Not detected ^a”.
As to `Cc1ccccc1OCC(=O)Nc1ccc2cn(C)nc2c1` [Compound 35], in series [2] (dual activity: NOTUM inhibition and stabilizers of luciferase enzyme), the “Response in TCF/LEF reporter assay” value is listed as “supramaximal response”.
Take `Cc1ccccc1OCC(=O)Nc1ccc2nn[nH]c2c1` [Compound 39]: the half-life in series [1] (liver microsomes) is 1.8 min.
As for `CCn1cc2ccc(NC(=O)COc3ccccc3C)cc2n1` [Compound 37], the EC50 in series [2] (Homo sapiens, HEK293) is 386 ± 199 nM.
As for `Cc1ccccc1OCC(=O)Nc1ccc2cn(C(C)C)nc2c1` [Compound 38], the half-life in series [3] was 5.1 min; in series [1] (liver microsomes) it was 5.7 min. The EC50 in series [2] (Homo sapiens, HEK293) is approximately 934 nM. For the same molecule, the inhibition at 3 µM in series [2] (Homo sapiens, HEK293, at 3 μM) is 60%.
In turn, `Cc1ccccc1OCC(=O)Nc1cccnc1` [Compound 3, 2-(2-methylphenoxy)-N-(pyridine-3-yl)acetamide] gave a half-life in series [1] (liver microsomes) of 1.1 min.
Take `Cc1ccccc1OCC(=O)Nc1ccc2nccnc2c1` [Compound 27]: the “Response in TCF/LEF reporter assay” value in series [2] is on record as “supramaximal response”.
On to `Cc1ccccc1OCC(=O)Nc1ccc2cnccc2c1` [Compound 45], for which the half-life came to 12.1 min in series [3] and 11 min in series [1] (liver microsomes).
In turn, `Cc1ccccc1OCC(=O)Nc1ccc2cnn(C)c2c1` [Compound 34] showed a half-life in series [3] of 11.6 min. This molecule also had a thermodynamic solubility in series [4] of 2 µg/mL (≈ 6.77 µM). Also, the “MLM (t1/2 min)” value in series [1] was “Not detected ^a”. For the same molecule, the Hydrolytic stability entry in series [5] is given as “only parent was detected”. In addition, the P-gp mediated efflux entry with MDCK-mdr1 cell line was “no evidence of P-gp mediated efflux”. This molecule also gave a Papp A→B in series [6] (MDCK-mdr1, AB) of 5.1 ×10⁻⁶ cm/s. This molecule gave a Papp B→A in series [6] (MDCK-mdr1, BA) of 6.6 ×10⁻⁶ cm/s.
As for `Cc1ccccc1OCC(=O)N1CCc2ccccc2C1` [Compound 54], the “MLM (t1/2 min)” value in series [1] is “Not detected ^a”.

Broadly, the half-life is the time needed for the level to fall by half in the phase considered. A higher half-life goes with slow loss. Usually inhibition stands for how much of the control response was suppressed. A lower inhibition goes with a response near the control. In general, solubility (thermodynamic) refers to solubility found after equilibrating the solid with the medium. As a reminder, the Papp A→B is the apparent permeability from the apical to the basolateral side of a cell layer. As usually defined, the Papp B→A is how fast a substance crosses the layer from the basolateral side.
